Experiments:
[1] = biological target: T1, Recombinant human c-Cbl (aa 47-435) (Homo sapiens, UniProt P22681); assay: c-Cbl Biochemical Assay (TR-FRET); conditions: hc-Cbl Biochemical Assay (TR-FRET); read-out: TR-FRET hcCbl IC50
T1 sequence (P22681 47-435): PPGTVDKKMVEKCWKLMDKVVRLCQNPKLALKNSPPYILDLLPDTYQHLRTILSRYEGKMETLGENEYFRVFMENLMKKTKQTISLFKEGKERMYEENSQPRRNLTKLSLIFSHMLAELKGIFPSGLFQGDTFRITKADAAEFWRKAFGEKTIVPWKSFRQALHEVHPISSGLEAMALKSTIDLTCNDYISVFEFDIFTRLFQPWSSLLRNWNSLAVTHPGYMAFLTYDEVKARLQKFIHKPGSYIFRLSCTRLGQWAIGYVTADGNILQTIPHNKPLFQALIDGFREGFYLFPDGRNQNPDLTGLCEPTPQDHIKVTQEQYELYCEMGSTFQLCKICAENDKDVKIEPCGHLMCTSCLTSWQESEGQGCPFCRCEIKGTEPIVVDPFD

[2] = biological target: Recombinant human Cbl-b (aa 36-427) (Homo sapiens, UniProt Q13191); assay: Cbl-b Biochemical Assay (TR-FRET); conditions: read-out: TR-FRET hCbl-b IC50
Recombinant human Cbl-b (aa 36-427), sequence (Q13191 36-427): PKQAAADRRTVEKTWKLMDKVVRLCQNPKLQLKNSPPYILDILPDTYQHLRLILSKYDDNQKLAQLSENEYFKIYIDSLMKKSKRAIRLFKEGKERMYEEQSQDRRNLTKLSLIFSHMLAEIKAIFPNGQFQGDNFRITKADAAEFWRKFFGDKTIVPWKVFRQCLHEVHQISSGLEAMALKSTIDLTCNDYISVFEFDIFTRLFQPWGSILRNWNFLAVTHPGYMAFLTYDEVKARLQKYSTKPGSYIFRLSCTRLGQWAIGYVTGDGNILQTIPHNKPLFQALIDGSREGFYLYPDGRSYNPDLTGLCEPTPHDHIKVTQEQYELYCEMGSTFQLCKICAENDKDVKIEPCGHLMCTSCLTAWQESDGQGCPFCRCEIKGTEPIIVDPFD

IC50 [1]	IC50 [2]	SMILES
10 to 50 µM	0.2 to 1 µM	Cn1cnnc1CC1(c2cccc(-c3nc4cc(Br)cc(C(F)(F)F)c4o3)c2)COC1 [AAK-1, 5-Bromo-2-(3-(3-((4-methyl-4H-1,2,4-triazol-3-yl)methyl)oxetan-3-yl)phenyl)-7-(trifluoromethyl)benzo[d]oxazole]
1 to 10 µM	0.2 to 1 µM	COC(=O)c1cc(C(F)(F)F)c2oc(-c3cccc(-c4ccc(F)cc4-c4nncn4C)c3)nc2c1 [Example X-1, Methyl 2-(4′-fluoro-2′-(4-methyl-4H-1,2,4-triazol-3-yl)-[1,1′-biphenyl]-3-yl)-7-(trifluoromethyl)benzo[d]oxazole-5-carboxylate]
10 to 50 µM	10 to 50 µM	Cn1cnnc1-c1cc(C#N)ccc1-c1cccc(-c2nc3cccc(C(F)(F)F)c3[nH]2)c1 [CB-1, 2-(4-Methyl-4H-1,2,4-triazol-3-yl)-3′-(4-(trifluoromethyl)-1H-benzo[d]imidazol-2-yl)-[1,1′-biphenyl]-4-carbonitrile]
1 to 10 µM	1 to 10 µM	COc1cc(CO)cc2nc(-c3cccc([C@]4(c5nncn5C)C[C@@H](C)C4)c3)oc12 [AEB-1, (7-Methoxy-2-{3-[(1r,3s)-3-methyl-1-(4-methyl-1,2,4-triazol-3-yl)cyclobutyl]phenyl}-1,3-benzoxazol-5-yl)methanol]
1 to 10 µM	0.2 to 1 µM	C=Cc1cc(C(F)(F)F)c2oc(-c3cccc(-c4ccc(F)cc4-c4nncn4C)c3)nc2c1 (racemic) [DL-1, 2-(4′-Fluoro-2′-(4-methyl-4H-1,2,4-triazol-3-yl)-[1,1′-biphenyl]-3-yl)-7-(trifluoromethyl)-5-vinylbenzo[d]oxazole]
10 to 50 µM	0.2 to 1 µM	Cn1cnnc1-c1cc(F)ccc1-c1cccc(-c2nc3cc(CNCC(C)(C)O)ccc3[nH]2)c1 [BX-2, 1-(((2-(4′-Fluoro-2′-(4-methyl-4H-1,2,4-triazol-3-yl)-[1,1′-biphenyl]-3-yl)-1H-benzo[d]imidazol-5-yl)methyl)amino)-2-methylpropan-2-ol]
10 to 50 µM	1 to 10 µM	Cn1cnnc1C[C@]1(c2cccc(-c3nc4cccc(C(F)(F)F)c4o3)c2)C[C@H](C#N)C1 [AAT-14, (1r,3r)-3-((4-Methyl-4H-1,2,4-triazol-3-yl)methyl)-3-(3-(7-(trifluoromethyl)benzo[d]oxazol-2-yl)phenyl)cyclobutane-1-carbonitrile]
10 to 50 µM	10 to 50 µM	Cn1cnnc1CC1(c2cccc(-c3cc(C4CC4)c[nH]c3=O)c2)COC1 [ABX-3, 5-Cyclopropyl-3-(3-(3-((4-methyl-4H-1,2,4-triazol-3-yl)methyl)oxetan-3-yl)phenyl)pyridin-2(1H)-one]
1 to 10 µM	< 0.2 µM	Cn1cnnc1-c1cc(F)ccc1-c1cccc(-c2nc3cc(CNC4(CO)COC4)cc(C(F)(F)F)c3[nH]2)c1 [BS-1, (3-(((2-(4′-Fluoro-2′-(4-methyl-4H-1,2,4-triazol-3-yl)-[1,1′-biphenyl]-3-yl)-7-(trifluoromethyl)-1H-benzo[d]imidazol-5-yl)methyl)amino)oxetan-3-yl)methanol]
10 to 50 µM	10 to 50 µM	Cn1cnnc1-c1ccccc1-c1cccc(-c2nc3ccc(OCCN4CCCC4)c(C(F)(F)F)c3[nH]2)c1 [BG-1, 2-(2′-(4-Methyl-4H-1,2,4-triazol-3-yl)-[1,1′-biphenyl]-3-yl)-6-(2-(pyrrolidine-1-yl)ethoxy)-7-(trifluoromethyl)-1H-benzo[d]imidazole]
1 to 10 µM	1 to 10 µM	Cn1cnnc1-c1cc(F)ccc1-c1cc(-c2nc3cc(CO)ccc3[nH]2)nc(C2CC2)c1 [AEE-1, (2-(6-Cyclopropyl-4-(4-fluoro-2-(4-methyl-4H-1,2,4-triazol-3-yl)phenyl)pyridin-2-yl)-1H-benzo[d]imidazol-5-yl)methanol]
1 to 10 µM	< 0.2 µM	CC(=O)c1cc(C(F)(F)F)c2oc(-c3cccc(-c4ccc(F)cc4-c4nncn4C)c3)nc2c1 [DK-1, 1-(2-(4′-Fluoro-2′-(4-methyl-4H-1,2,4-triazol-3-yl)-[1,1′-biphenyl]-3-yl)-7-(trifluoromethyl)benzo[d]oxazol-5-yl)ethan-1-one]
10 to 50 µM	0.2 to 1 µM	Cn1cnnc1-c1ccccc1-c1cccc(-c2nc3cc(CN(C(=O)OC(C)(C)C)[C@@H]4CCC[C@H]4O)cc(C(F)(F)F)c3o2)c1 [Example M-5, tert-Butyl ((1R,2R)-2-hydroxycyclopentyl)((2-(2′-(4-methyl-4H-1,2,4-triazol-3-yl)-[1,1′-biphenyl]-3-yl)-7-(trifluoromethyl)benzo[d]oxazol-5-yl)methyl)carbamate]
10 to 50 µM	10 to 50 µM	C[C@H](Cc1nncn1C)c1cccc(-c2nc3cccc(C(F)(F)F)c3[nH]2)c1 [ABD-9, 2-{3-[(2R)-1-(4-Methyl-1,2,4-triazol-3-yl)propan-2-yl]phenyl}-4-(trifluoromethyl)-3H-1,3-benzodiazole]
10 to 50 µM	10 to 50 µM	Cn1cnnc1CC1(c2cccc(-c3nc4cc(OCCN5CCCC5)cc(C(F)(F)F)c4[nH]3)c2)COC1 [ACJ-5, 2-(3-(3-((4-Methyl-4H-1,2,4-triazol-3-yl)methyl)oxetan-3-yl)phenyl)-5-(2-(pyrrolidin-1-yl)ethoxy)-7-(trifluoromethyl)-1H-benzo[d]imidazole]
1 to 10 µM	0.2 to 1 µM	Cn1cnnc1-c1cc(F)ccc1-c1cccc(-c2nc3cc(C(=O)N[C@@H]4CCC[C@@H]4O)cc(C(F)(F)F)c3o2)c1 [DB-2, 2-(4′-Fluoro-2′-(4-methyl-4H-1,2,4-triazol-3-yl)-[1,1′-biphenyl]-3-yl)-N-((1R,2S)-2-hydroxycyclopentyl)-7-(trifluoromethyl)benzo[d]oxazole-5-carboxamide]
1 to 10 µM	0.2 to 1 µM	Cn1cnnc1[C@]1(c2cccc(-c3nc4cc(CO)cc(C(F)(F)F)c4o3)c2)C[C@H](C)C1 [ADD-1, (2-(3-((1s,3s)-3-Methyl-1-(4-methyl-4H-1,2,4-triazol-3-yl)cyclobutyl)phenyl)-7-(trifluoromethyl)benzo[d]oxazol-5-yl)methanol]
10 to 50 µM	10 to 50 µM	Cn1cnnc1CC1(c2cccc(-c3cc(C(F)(F)F)cn(C)c3=O)c2)COC1 [CF-2, 1-Methyl-3-(3-(3-((4-methyl-4H-1,2,4-triazol-3-yl)methyl)oxetan-3-yl)phenyl)-5-(trifluoromethyl)pyridin-2(1H)-one]
10 to 50 µM	10 to 50 µM	CCNc1cc(-c2c(-c3nncn3C)cnn2C)cc(-c2nc3cccc(C(F)(F)F)c3s2)n1 [ACU-2, N-Ethyl-4-[2-methyl-4-(4-methyl-1,2,4-triazol-3-yl)-pyrazol-3-yl]-6-[7-(trifluoromethyl)-1,3-benzothiazol-2-yl]-pyridin-2-amine]
10 to 50 µM	10 to 50 µM	Cn1cnnc1-c1ccccc1-c1cccc(-c2nc3cc(C(C)(C)O)cc(C(F)(F)F)c3o2)c1 [Example J-1, 2-(2-(2′-(4-Methyl-4H-1,2,4-triazol-3-yl)-[1,1′-biphenyl]-3-yl)-7-(trifluoromethyl)benzo[d]oxazol-5-yl)propan-2-ol]
10 to 50 µM	10 to 50 µM	Cn1cnnc1-c1ccccc1-c1cccc(-c2nc3cccc(C(F)(F)F)c3o2)c1 [Example K-2, 2-(2′-(4-Methyl-4H-1,2,4-triazol-3-yl)-[1,1′-biphenyl]-3-yl)-7-(trifluoromethyl)benzo[d]oxazole]
10 to 50 µM	10 to 50 µM	CCNc1cc(-c2ccccc2-c2nncn2C)cc(-n2nc3c(C(F)(F)F)cccn3c2=O)n1 [AAO-4, 2-(6-(Ethylamino)-4-(2-(4-methyl-4H-1,2,4-triazol-3-yl)phenyl)pyridin-2-yl)-8-(trifluoromethyl)-[1,2,4]triazolo[4,3-a]pyridin-3(2H)-one]
1 to 10 µM	0.2 to 1 µM	CCNc1cc(-c2c(-c3nncn3C)cnn2C)cc(-c2cc(C(F)(F)F)c[nH]c2=O)n1 [ACQ-3, 6-(Ethylamino)-4-(1-methyl-4-(4-methyl-4H-1,2,4-triazol-3-yl)-1H-pyrazol-5-yl)-5′-(trifluoromethyl)-[2,3′-bipyridin]-2′(1′H)-one]
10 to 50 µM	1 to 10 µM	Cn1cnnc1CC1(c2cccc(-c3nc4ccc(Br)c(C(F)(F)F)c4[nH]3)c2)COC1 [BA-1, 6-Bromo-2-(3-(3-((4-methyl-4H-1,2,4-triazol-3-yl)methyl)oxetan-3-yl)phenyl)-7-(trifluoromethyl)-1H-benzo[d]imidazole]
10 to 50 µM	1 to 10 µM	Cn1cnnc1-c1cc(F)ccc1-c1cccc(-c2nc3ccc(CO)cc3o2)c1 [DC-3, (2-(4′-Fluoro-2′-(4-methyl-4H-1,2,4-triazol-3-yl)-[1,1′-biphenyl]-3-yl)benzo[d]oxazol-6-yl)methanol]
10 to 50 µM	10 to 50 µM	COC(=O)c1[nH]c(=O)c(-c2cccc(-c3ccccc3-c3nncn3C)c2)cc1C(F)(F)F [CH-2, Methyl 5-(2′-(4-methyl-4H-1,2,4-triazol-3-yl)-[1,1′-biphenyl]-3-yl)-6-oxo-3-(trifluoromethyl)-1,6-dihydropyridine-2-carboxylate]
10 to 50 µM	1 to 10 µM	Cn1cnnc1CC1(c2cccc(-c3nc4cccc(C(F)(F)F)c4s3)c2)COC1 [ABT-2, 2-(3-(3-((4-Methyl-4H-1,2,4-triazol-3-yl)methyl)oxetan-3-yl)phenyl)-7-(trifluoromethyl)benzo[d]thiazole]
10 to 50 µM	10 to 50 µM	Cn1cnnc1-c1cc(F)ccc1-c1cccc(-c2nc3ccccc3o2)c1 [AR-2, 2-(4′-Fluoro-2′-(4-methyl-4H-1,2,4-triazol-3-yl)-[1,1′-biphenyl]-3-yl)benzo[d]oxazole]

Reference: US20250163038A1, “CBL-B MODULATORS AND USES THEREOF” (Nimbus Clio, Inc., priority 2021, published 2025)
